From patent US20160374368A9, “Mimicking the Metabolic Effect of Caloric Restrictions by Administration of Glucose Anti-Metabolites to Enhance Positive Response in a Mammal” (The Iams Company, priority 2013, published 2016)

Key:
hexokinase = conditions: cited from earlier work
isolated rat hepatocytes = conditions: cited from earlier work
rodents = conditions: cited from earlier work
[1] = cited from earlier work
[2] = injected into a rat; cited from earlier work
[3] = cited from earlier work; remark: listed apart in the source
[4] = injected, rats, cited from earlier work
Labrador Retrievers [5] = test: Serum Trp:LNAA ratio in dogs fed control diet or control diet +MH (HPLC amino acid analysis); assay type: in vivo; conditions: 200 ppm MH in the diet
Excerpt: Brain serotonin is known to influence the mood. Serotonin is synthesized in the brain from tryptophan, which uptake into the brain is dependent on the plasma ratio of tryptophan to the sum of other large neutral amino acids (Trp/LNAA). Other large amino acids include leucine, isoleucine, valine, phenylalanmine and tyrosine. It is well accepted that carbohydrate rich diets increase this ration and protein rich diets decrease the ration, in other words, when there is decrease in insulin sensitivity and a greater glycemic response, greater Trp/LNAA ratios are expected. Blood samples for amino acid analysis were collected from a total of 51 dogs fed a control diet or a control diet +MH. The blood samples were collected from two cohorts of Labrador Retrievers. Cohort 1 included 19 neutered Labrador Retrievers, 5 male and 14 female, ranged in age from 12.6 to 15.7 years old at the time of sampling. Cohort 2 included 32 neutered Labrador Retrievers, 9 males and 23 females ranged in age from 8.3 to 12.5 years old at the time of sampling. Each cohort was fed similar a control diet or a test diet where the only differences was inclusion of mHep enriched avocado juice concentrate targeted to supply 200 ppm MH in the diet. The avocado juice concentrate was derived from whole fruit (flesh, peel and pit) avocados. […]

cats = test: Behavioural assessment of play motivation in cats (weighted swing door); assay type: in vivo; conditions: vs same diets without MH
Excerpt: Twenty cats (N=20) of similar age (˜2.5 years), and split 10 female (5 lean and 5 moderately overweight) and 10 male (5 lean and 5 moderately overweight). To effectively test the effects of MH on energy metabolism dietary energy needs, intended to maintain weight, were provided equally between animals on a body weight basis; therefore, each cat received 45 kcal ME/kg body weight/d (females) and 50 kcal ME/kg body weight/d (males).
For two weeks prior to the initiation of the study cats were fed Iams® Original Chicken. Diets were presented in kibble form and cats were fed individually at 7:00 am each day and will be permitted 60 minutes to eat during food offerings. This feeding protocol were maintained throughout the entire study except on days in which fasted blood/calorimetry samples are obtained as cats were fed following the sampling period which was no later than 9:00 am. […]
Two walled stalls (each measuring: 100 cm W×100 cm L×75 cm H; Quenn City polymers, Dayton, Ohio), one classified as the start box and the other the goal box, each with a plexi-glass roof containing a 1 cm diameter hole in the center, were placed next to each other and connected via a swing door (23 cm W×18 cm H). […] Cats were assessed two times per dietary treatment on day 14 and again on day 37 at approximately 5 hrs post feeding. […]

Labrador Retrievers [6] = test: Annual kennel assessment of affective behavior in dogs fed control diet or control diet+MH; assay type: in vivo
Excerpt: Annual kennel assessments (period of 5 years) have been conducted on dogs fed a control diet or a control diet+MH. This assessment included two cohorts of Labrador Retrievers. Cohort 1 included 39 neutered Labrador Retrievers, 12 male and 27 female, ranged in age from 5.1 to 8.2 years old at the beginning of the test-feeding period (mean age at the beginning of the study 6.7 years). Cohort 2 included 41 neutered Labrador Retrievers, 12 males and 29 females ranged in age from 2.0 to 6.1 years old at the beginning of the test feeding period (mean age at the beginning of the study 4.0 years). Each cohort was fed a control diet or a test diet where the only differences was inclusion of mHep-enriched avocado extract targeted to supply 2 mg/kg body weight of MH. All researchers, lab assistants, and assessors were blinded to the feeding groups. Dogs were assessed during August and September each year. Each scorer was instructed to operate independently. Trained assessors were categorized as either familiar or unfamiliar to the dogs. The familiar assessors were people that worked with the dogs on a regular basis. […] Each assessing group was comprised of a handler and two scorers. All dogs were assessed with three people in the room with at least one familiar scorer in each group. This created a total of three possible conditions: familiar handler, two familiar scorers (Fam/Fam); familiar handler, one unfamiliar scorer, one familiar scorer (Fam/Unfam); unfamiliar handler, one unfamiliar scorer, one familiar scorer (Unfam/Unfam). The behaviors are outlined in Table 1. Calculating score: Assessors were asked to score dogs on a scale from 1-5 including half scores. For the behavior items, a score of 1 signified “Fails To Do” while 5 signified “Excellent”. For the demeanor items, a score of 1 signified “Strongly” while a score of 5 signified “Not at All”. All necessary items were reverse scored to allow higher scores to indicate a more favorable score and lower score to indicate a less favorable score. The sums of the corresponding behavior and demeanor items were used to calculate the score for each of the two behavior components. These scores were used to compare changes across years and between groups. [table]

[7] = 2 mg/kg body weight MH, vs control diet

In the case of `OC[C@H]1OC[C@H](O)[C@@H](O)[C@@H]1O` [1,5-Anhydro-D-Glucitol, 1,5-anhydro-D-glucitol], the “enzymatic conversion to the 6-phosphate” value (hexokinase; compared with 2-deoxy-glucose) is given as “less efficient than that of 2-deoxy-glucose”.

For `O=P(O)(O)OC[C@H]1OC[C@H](O)[C@@H](O)[C@@H]1O` [1,5-anhydro-D-glucitol-6-phosphate], the inhibition of hexokinase (hexokinase) is listed as “allosteric (non-competitive) inhibitor of hexokinase”.

In the case of `OC[C@H]1O[C@H](CO)[C@@H](O)[C@@H]1O` [2,5-Anhydro-D-mannitol, 2,5-anhydro-D-mannitol], the “effect on glucose formation and utilization” value (isolated rat hepatocytes) is listed as “interfere in glucose formation and utilization”.

In the case of `O=CC[C@@H](O)[C@H](O)[C@H](O)CO` [2-deoxy-D-glucose], the “side effects and toxicity” value (rodents; high doses) is given as “significant untoward side effects and toxicity have been observed” and the “mimicking metabolic hallmarks of caloric restriction” value (rodents; rodents, long-term, lower dose) is given as “can mimic some of the major metabolic hallmarks of caloric restriction and enhanced longevity, including reduced body temperature, weight loss, and lower fasting insulin levels”.

In the case of `CO[C@@H]([C@H](O)[C@H](O)CO)[C@@H](O)C=O` [3-O-methylglucose], the “metabolism of the analog” value ([1]; in contrast with 2-deoxy-D-glucose) is listed as “not metabolized” and the “responses to administration (prevention of glucose utilization as energy source) relative to 2-deoxyglucose” value ([1]; rats) is listed as “about seven times weaker than those to 2-deoxyglucose”.

In the case of `O=C[C@H](O)[C@@H](O)[C@H](O)[C@H](S)CO` [5-Thioglucose, 5-thio-D-glucose], the “excreted unchanged in urine” value [2] is given as 97%.

For `O=C(CO)[C@@H](O)[C@@H](O)[C@H](O)[C@H](O)CO` [mannoheptulose], the “mannoheptulose ingested appearing in urine” value ([3]; after oral administration) is given as “About 5%”, the “safety of oral doses” value ([3]; doses of 10 grams, humans, orally) is given as “safely administered” and the “remained in the body” value ([4]; a day after the injection) is given as 5%. For the same compound, the excreted unchanged [4] was 66%, the metabolized [4] was 29% and the “Trp:LNAA concentrations, fasting vs 4 hrs post fed” value (Labrador Retrievers [5]; Cohort 1 (older dogs), P>0.05) was “no differences”. The “Trp:LNAA concentrations, fasting vs 4 hrs post fed” value (Labrador Retrievers [5]; old and young cohorts pooled) was “no differences”, the motivation to play (cats) was “significantly greater motivation to play” and the “comfort in new areas score” value (Labrador Retrievers [6]; 2 mg/kg body weight MH, unfamiliar/unfamiliar condition, vs control diet) was “significantly better response”. For the same compound, the “score for ability to handle new areas” value (Labrador Retrievers [6]; [7]) was “higher scores”, the “score for social interaction” value (Labrador Retrievers [6]; [7]) was “higher scores” and the “social interaction score, difference between groups” value (Labrador Retrievers [6]; fam/fam or unfam/unfam condition) was “not different”.
